For this assay, the target named is Glutamine--fructose-6-phosphate transaminase (isomerizing) (Saccharomyces cerevisiae (strain YJM789), UniProt A6ZZL3). Put plainly: Inhibition Assay. The text has this: The inhibition assay was followed under standard conditions with saturating concentrations of both substrates to determine the IC50 values.
Sequence of Glutamine--fructose-6-phosphate transaminase (isomerizing) (A6ZZL3 whole entry): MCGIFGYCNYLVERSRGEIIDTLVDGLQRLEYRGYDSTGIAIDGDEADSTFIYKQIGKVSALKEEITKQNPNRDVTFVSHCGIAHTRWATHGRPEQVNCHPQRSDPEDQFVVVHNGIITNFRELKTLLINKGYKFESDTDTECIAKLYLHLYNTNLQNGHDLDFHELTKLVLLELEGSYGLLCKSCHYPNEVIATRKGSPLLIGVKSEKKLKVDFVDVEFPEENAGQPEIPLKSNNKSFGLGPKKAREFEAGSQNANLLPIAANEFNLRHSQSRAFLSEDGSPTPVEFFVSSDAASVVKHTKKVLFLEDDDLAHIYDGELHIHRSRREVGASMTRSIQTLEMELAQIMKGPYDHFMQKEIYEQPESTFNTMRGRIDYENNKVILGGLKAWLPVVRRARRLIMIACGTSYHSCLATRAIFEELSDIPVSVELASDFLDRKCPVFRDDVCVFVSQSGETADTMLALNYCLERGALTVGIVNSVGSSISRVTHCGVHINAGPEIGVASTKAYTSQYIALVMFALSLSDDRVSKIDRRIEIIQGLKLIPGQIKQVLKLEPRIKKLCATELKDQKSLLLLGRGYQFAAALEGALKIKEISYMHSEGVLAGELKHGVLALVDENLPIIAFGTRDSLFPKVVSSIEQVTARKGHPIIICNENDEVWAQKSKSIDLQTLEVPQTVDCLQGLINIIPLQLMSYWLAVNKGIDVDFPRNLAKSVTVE

Regarding `N[C@@H](CNC(=O)[C@@H]1O[C@H]1C(=O)c1ccccc1)C(=O)O` [N3-Oxoacyl derivative, 1], the IC50 was found to be 0.66 mM and the Ki is 0.45 mM.
For `CC(=O)[C@@H]1O[C@H]1C(=O)NC[C@H](N)C(=O)O` [N3-Oxoacyl derivative, 2] the same measures were 7.35 mM and 19.4 mM.
For `N[C@@H](CNC(=O)/C=C/C(=O)c1ccccc1)C(=O)O` [N3-Oxoacyl derivative, 3] the same measures were 0.27 mM and 0.0565 mM.
In the case of `CC(=O)C=CC(=O)NC[C@H](N)C(=O)O` [N3-Oxoacyl derivative, 4], the IC50 worked out at 5.6 mM and the Ki stood at 15.2 mM.

Usually IC50 stands for the concentration that inhibits the measured activity by half. Low readings indicate inhibition by little substance, high ones a need for much substance. Broadly, the Ki is a measure of affinity in units of concentration, obtained from inhibition or displacement.

The values above are taken from BindingDB's records for doi:10.1002/cbic.201100587 (2012).
